Source: US11568956B2, “Methods for identifying inhibitors of amyloid protein aggregation” (Treventis Corporation, priority 2008, dated 2023)
Structures can show the parent of a compound that is named as a salt.

Target: Aβ (Homo sapiens, UniProt P05067)
Assay: not given
Conditions: read-out: Expt (IC50); cited from earlier work

Sequence of Aβ (P05067 672-711 limits assumed): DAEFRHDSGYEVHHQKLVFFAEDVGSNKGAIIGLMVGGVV

Molecule | IC50 [µM]
CCCN1C(=CC=CC=Cc2sc3ccccc3[n+]2CCC)Sc2ccccc21 [3,3′-dipropyl thiodicarbocyanine iodine] | 0.3
NCCc1ccc(O)c(O)c1 [dopamine chloride] | 28.6

Same assay, conditions: unit not in the table, μM; Masuda test set; read-out: Expt (IC50); cited from earlier work

Molecule | IC50 [µM]
O=C(c1ccc(O)cc1O)c1ccc(O)cc1O [2,2′,4,4′-tetrahydroxybenzaphenone] | > 40
O=C(c1ccccc1O)c1ccccc1O [2,2′-dihydroxybenzophenone] | > 40
O=C(c1ccc(O)cc1O)c1ccc(O)c(O)c1O [2,3,4,2′,4′-pentahydroxybenzophenone] | 2.8
O=C(c1ccccc1)c1ccc(O)c(O)c1O [2,3,4-trihydroxybenzophenone] | 3.1
Cc1ccc2nc(-c3ccc(N)cc3)sc2c1 [2-(4-aminophenyl)-6-methylbenzothiazole] | 2
Cc1ccc2nc(-c3ccc(N(C)C)cc3)sc2c1 [2-[4-(dimethylamino)phenyl]-6-methylbenzothiazole] | 2
O=C(c1ccc(O)cc1)c1ccc(O)cc1 [4,4′-dihydroxybenzophenone] | > 40
O=C1NC(=O)c2cc(Nc3ccccc3)c(Nc3ccccc3)cc21 [4,5-dianilinophthalimide] | 2.9
O=c1cc(-c2ccc(O)cc2)oc2cc(O)cc(O)c12 [Apigenin] | > 40
O=C(O)c1cc(/C=C/c2ccc(/C=C/c3ccc(O)c(C(=O)O)c3)c(Br)c2)ccc1O [BSB] | 6.4
Nc1c(/N=N/c2ccc(-c3ccc(/N=N/c4cc(S(=O)(=O)O)c5ccccc5c4N)cc3)cc2)cc(S(=O)(=O)O)c2ccccc12 [Congo red] | 0.9
O=C(O)c1cc(/C=C/c2ccc(/C=C/c3ccc(O)c(C(=O)O)c3)c(F)c2)ccc1O [FSB] | 1.9
O=S(=O)(O)c1ccc2c(N=Nc3ccc(N=Nc4ccccc4)cc3)c(O)c(S(=O)(=O)O)cc2c1 [Ponceau SS] | 1.2
CC(=O)c1ccc2c(c1)N(CCCN(C)C)c1ccccc1S2 [acetopromazine maleate salt] | > 40
C[C@@H]1[C@H](O)[C@@H](C)/C=C/C=C/C=C/C=C/C=C/C=C/C=C/[C@H](O[C@@H]2O[C@H](C)[C@@H](O)[C@H](N)[C@@H]2O)C[C@@H]2O[C@](O)(C[C@@H](O)C[C@@H](O)[C@H](O)CC[C@@H](O)C[C@@H](O)CC(=O)O[C@H]1C)C[C@H](O)[C@H]2C(=O)O [amphotericin B] | 2.2
C[C@H]1[C@H](C)CC[C@]2(C(=O)O)CC[C@]3(C)C(=CC[C@@H]4[C@@]5(C)C[C@@H](O)[C@H](O)[C@@](C)(CO)[C@@H]5CC[C@]43C)[C@H]12 [asiatic acid] | > 40
CN(C)c1ccc2nc3ccc(N)cc3[s+]c2c1 [azure A] | 0.4
CCN(CCO)c1ccc(/N=N/c2sc3cc(OC)ccc3[n+]2C)cc1 [basic blue 41] | 1.4
Nc1ccc(N=Nc2ccc(-c3ccc(N=Nc4c(S(=O)(=O)O)cc5cc(S(=O)(=O)O)c(N=Nc6ccccc6)c(O)c5c4N)cc3)cc2)c(N)c1 [chlorazol black E] | 0.3
O=C(/C=C/c1ccc(O)c(O)c1)O[C@@H]1C[C@](O)(C(=O)O)C[C@@H](O)[C@H]1O [chlorogenic acid] | > 40
CN(C)CCCN1c2ccccc2Sc2ccc(Cl)cc21 [chlorpromazine hydrochloride] | > 40
Oc1cc(O)c2cc(O)c(-c3ccc(O)c(O)c3)[o+]c2c1 [cyanidin] | 4

Molecule | IC50 [µM]
O=c1c(-c2ccc(O)cc2)coc2cc(O)ccc12 [daidzein] | > 40
COc1cccc2c1C(=O)c1c(O)c3c(c(O)c1C2=O)C[C@@](O)(C(C)=O)C[C@@H]3O[C@H]1C[C@H](N)[C@H](O)[C@H](C)O1 [daunorubicin hydrochloride] | 1.4
Oc1cc(O)c2cc(O)c(-c3cc(O)c(O)c(O)c3)[o+]c2c1 [delphinidin] | 3
O=C(O[C@@H]1Cc2c(O)cc(O)cc2O[C@@H]1c1ccc(O)c(O)c1)c1cc(O)c(O)c(O)c1 [epicatechin 3-gallate] | 3
Oc1cc(O)c2c(c1)O[C@H](c1ccc(O)c(O)c1)[C@H](O)C2 [epicatechin] | > 40
O=C(O[C@@H]1Cc2c(O)cc(O)cc2O[C@@H]1c1cc(O)c(O)c(O)c1)c1cc(O)c(O)c(O)c1 [epigallocatechin gallate] | 2
Oc1cc(O)c2c(c1)O[C@H](c1cc(O)c(O)c(O)c1)[C@H](O)C2 [epigallocatechin] | 7
O=C(c1cc(O)c(O)c(O)c1)c1ccc(O)c(O)c1O [exifone] | 0.7
CCCCC[C@@H](O)[C@H]1C(=O)O[C@H](C)[C@@H](O)/C=C/C=C/C=C/C=C/C=C(\C)[C@@H](O)C[C@H](O)C[C@H](O)C[C@H](O)C[C@H](O)C[C@H](O)C[C@@H]1O [filipin III] | 14.6
Oc1cc(O)c2c(c1)O[C@H](c1cc(O)c(O)c(O)c1)[C@@H](O)C2 [gallocatechin] | 7
CCCCC[C@H](O)CC(=O)CCc1ccc(O)c(OC)c1 [gingerol] | 25
C[C@@H]1C(=O)O[C@H]2C[C@@]34[C@H]5C[C@@H](C(C)(C)C)[C@]36[C@@H](OC(=O)[C@@H]6O)O[C@@]4(C(=O)O5)[C@]21O [ginkgolide A] | > 40
CC1C(=O)OC2C(O)C34C5CC(C(C)(C)C)C36C(OC(=O)C6O)OC4(C(=O)O5)C12O (centres unmarked) [ginkgolide B] | 11
O=c1c(O)c(-c2ccc(O)c(O)c2)oc2c(O)c(O)cc(O)c12 [gossypetin] | 1.3
O=c1cc(-c2ccc(Oc3c(O)cc4oc(-c5ccc(O)cc5)cc(=O)c4c3O)cc2)oc2cc(O)cc(O)c12 [hinokiflavone] | 5
Cc1cc(O)c2c(=O)c3c(O)cc(O)c4c5c(O)cc(O)c6c(=O)c7c(O)cc(C)c8c1c2c(c34)c(c78)c65 [hypericin] | 0.9
O=c1c(O)c(-c2ccc(O)cc2)oc2cc(O)cc(O)c12 [kaempferol] | 8
O=c1cc2oc3cc(O)c(-c4ccc(O)cc4O)cc3nc-2cc1-c1ccc(O)cc1O [lacmoid] | 1.4
C[C@H](CCC(=O)NCCS(=O)(=O)O)[C@H]1CC[C@H]2[C@@H]3[C@H](O)C[C@@H]4C[C@H](O)CC[C@]4(C)[C@H]3CC[C@]12C [laurochenodeoxycholic acid] | > 40
O=c1cc(-c2ccc(O)c(O)c2)oc2cc(O)cc(O)c12 [luteolin] | 3
C=CCc1ccc(O)c(-c2cc(CC=C)ccc2O)c1 [magnolol] | > 40
CN(C)c1ccc(N=Nc2ccccc2)cc1 [methyl yellow] | 1.5

Molecule | IC50 [µM]
CN(C)c1ccc2nc3ccc(=[N+](C)C)cc-3sc2c1 [methylene blue] | 2.3
O=C1C[C@@H](c2ccc(O)cc2)Oc2cc(O)cc(O)c21 [naringenin] | 25
OCCN1CCN(CCCN2c3ccccc3Sc3ccc(Cl)cc32)CC1 [perphenazine] | > 40
Oc1cc(O)c2c(c1)O[C@H](c1ccc(O)c(O)c1)[C@H](O)[C@H]2c1c(O)cc(O)c2c1O[C@H](c1ccc(O)c(O)c1)[C@@H](O)C2 [procyanidin B1] | 14
Oc1cc(O)c2c(c1)O[C@H](c1ccc(O)c(O)c1)[C@H](O)[C@H]2c1c(O)cc(O)c2c1O[C@H](c1ccc(O)c(O)c1)[C@H](O)C2 [procyanidin B2] | > 40
CN(C)CCCN1c2ccccc2Sc2ccccc21 [promazine hydrochloride] | > 40
CCC(=O)c1ccc2c(c1)N(CCCN(C)C)c1ccccc1S2 [propionylpromazine hydrochloride] | > 40
O=c1c(O)c(-c2ccc(O)c(O)c2)oc2cc(O)cc(O)c12 [quercetin] | 5
CCN(CC)CCCC(C)Nc1c2ccc(Cl)cc2nc2ccc(OC)cc12 (centres unmarked) [quinacrine] | 8.4
CO[C@H]1/C=C/O[C@@]2(C)Oc3c(C)c(O)c4c(O)c(c(/C=N/N5CCN(C)CC5)c(O)c4c3C2=O)NC(=O)/C(C)=C\C=C\[C@H](C)[C@H](O)[C@@H](C)[C@@H](O)[C@@H](C)[C@H](OC(C)=O)[C@@H]1C [rifampicin] | 4.9
O=C(/C=C/c1ccc(O)c(O)c1)O[C@H](Cc1ccc(O)c(O)c1)C(=O)O [rosmarinic acid] | 12
C[C@@H]1O[C@@H](OC[C@H]2O[C@@H](Oc3c(-c4ccc(O)c(O)c4)oc4cc(O)cc(O)c4c3=O)[C@H](O)[C@@H](O)[C@@H]2O)[C@H](O)[C@H](O)[C@H]1O [rutin] | 32
c1cc2c(cc1[C@H]1OC[C@H]3[C@@H]1CO[C@@H]3c1ccc3c(c1)OCO3)OCO2 [sesamin] | > 40
C[C@H](CCC(=O)NCCS(=O)(=O)O)[C@H]1CC[C@H]2[C@@H]3CC[C@@H]4C[C@H](O)CC[C@]4(C)[C@H]3CC[C@]12C [taurolithocholic acid] | > 40
C[C@H](CCC(=O)NCCS(=O)(=O)O)[C@H]1CC[C@H]2[C@@H]3CC[C@@H]4C[C@H](OS(=O)(=O)O)CC[C@]4(C)[C@H]3CC[C@]12C [taurolithocholic aicd 3-sulfate] | > 40
C[C@H](CCC(=O)NCCS(=O)(=O)O)[C@H]1CC[C@H]2[C@@H]3[C@@H](O)C[C@@H]4C[C@H](O)CC[C@]4(C)[C@H]3CC[C@]12C [tauroursodeoxycholic acid] | > 40
ginkgolide C | > 40
phthalocyanine tetrasulfonate | 3.2
taurohydroxycholic acid | > 40
theaflavone | 2
tocopherol | > 40

Target: T1, Aβ 1-40 (Homo sapiens, UniProt P05067)
T1 construct: ThT aggregation assays of Aβ 1-40 and alpha synuclein
T1 sequence (P05067 672-711 limits assumed): as above
Assay: ThT aggregation assay of Aβ 1-40
Type: biochemical
Conditions: not given
Protocol: The anti-amyloid activity of these compounds was evaluated by ThT aggregation assays of Aβ 1-40 and alpha synuclein, as set forth below. The column “A-Syn” below is a functional ThT aggregation assay of alpha synuclein.

IC50 [µM] | Aβ - ThT (IC50/μM) | Molecule
> 20 |  | CC1=NNC(=O)C1CC(=O)N/N=C/c1cccc(OCc2ccccc2)c1 (centres unmarked)
> 20 |  | O=C(CNC(=O)c1ccccc1)N/N=C/c1c[nH]nc1-c1ccccc1
> 20 |  | CC(C)(O)C#Cc1ccc(C(=O)N2CCN(c3ncccn3)CC2)cc1
> 20 |  | CCOC(=O)c1c(NC(=O)c2cccc([N+](=O)[O-])c2C)sc2c1CCC2
> 20 |  | Cc1ccc(N(C)C(=O)C2CC(O)CN2C(=O)OCC(C)C)cc1C (centres unmarked)
 | INACTIVE | O=[N+]([O-])c1ccc(N2CCCCC2)cc1Nc1ccccc1

Molecule | IC50 [µM] | Aβ - ThT (IC50/μM)
Cc1sc(/C=N/NC(=O)c2cccc([N+](=O)[O-])c2)cc1[N+](=O)[O-] | > 20 | 
